Read-outs that look alike come from different tables or passages of the source.
How the values were obtained:
HepG-2 cells [1] = assay: MTT assay, cytotoxic effects on HepG-2 cells; format: cell-based, human; conditions: 48 h
Description: (§1) Primary hepatocytes were isolated from male SD rats weighing 250–300 g using a modified in situ collagenase perfusion method and then the cells were cultured in Dulbecco’s Modified Eagle’s Medium (DMEM) with 2 g/L bovine serum albumin (BSA) and 50 mg/L gentamicin. HepG-2 cells were incubated in RPMI 1640 medium supplemented with 10% fetal bovine serum (FBS) and 1% penicillin–streptomycin liquid. Cells were incubated at 37 °C in a humidified atmosphere of 95% air and 5% CO2. Stock solutions of compounds and cisplatin were prepared in dimethyl sulfoxide (DMSO), then added to fresh culture medium to obtain final concentrations.
Next, compounds b14 and b18 were prepared in five different concentrations (20 µM, 40 µM, 60 µM, 80 µM, 100 µM), and compounds b15, b16, and b17, along with cisplatin, were prepared in seven different concentrations (2.5 µM, 5 µM, 7.5 µM, 10 µM, 20 µM, 40 µM, 60 µM). A suspension of growing cells (50,000/mL) was prepared, and 100 µL/well dispensed into 96-well plates, yielding a density of 5000 cells/well. The cells were incubated for 24 h before adding the pyrazoline derivatives. The optimal cell number for cytotoxicity assays was determined in preliminary experiments. At the end of the incubation period, the medium was removed and 100 µL of different concentrations of pyrazoline derivatives were added to wells for 24 h and 48 h. Following the exposure period, 20 µL of MTT (5 mg/mL) were added to cells and incubated for a further 4 h at 37 °C. The medium was removed and the formazan crystals were solubilized by adding 150 µL DMSO to each well. After 10 min of shaking, the absorbance was measured at 550 nm using a FilterMax F5 Multi-Mode Microplate Reader (Energy Chemical, Shanghai, China). Cells were treated with each compound with four replicates per concentration, and each experiment was conducted at least three times. Dose–inhibition rate curves and IC50 values, defined as the drug concentrations which reduced absorbance to 50% of control values, were then generated.

primary hepatocytes = assay: MTS assay, cytotoxicity against primary hepatocytes; format: cell-based, rat; conditions: for IC50: Rattus norvegicus, Hepatocyte, 48 h; for cytotoxicity against primary hepatocytes (in words): compared with HepG-2
Description: as §1
The cytotoxicological activity of compounds b5, b9, and b14–18 were evaluated against primary hepatocytes using the MTS assay (Cell Titer 96® Aqueous Cell Proliferation Assay, Promega, Cat. No. G5421) as a fast and sensitive quantification of cell proliferation and viability. The concentrations of compounds were prepared in seven different concentrations (2.5 µM, 5 µM, 10 µM, 20 µM, 40 µM, 80 µM, 160 µM). Cells were seeded into 96-well plates at a density of 26,000 cells/well. The plates were incubated for 24 h prior to any treatment. At the end of this period, the medium was removed and 100 µL of different concentrations of pyrazoline derivatives were added to wells for 48 h. Following the exposure period, 20 μL of the combined MTS/PMS solution was added to cells and incubated for a further 2 h at 37 °C, then the absorbance was recorded at 490 nm using an ELISA Plate Reader (ELISA, Emeryville, CA, USA). The values of IC50, the effective concentration at which 50% of the primary hepatocytes were inhibited, were calculated to evaluate the cytotoxic activities.

HepG-2 cells [2] = assay: Annexin-V assay (annexin V/PI flow cytometry); format: cell-based, human; conditions: 12 h
Description: Approximately 1.5 × 10^5 HepG-2 cells/well were plated in 6-well plates and allowed to adhere. After 24 h, the medium was replaced with fresh culture medium containing compound b17 at final concentrations of 0 µM, 0.9 µM, 2.7 µM, and 4.5 µM. Cells were harvested after 12 h. The cells were trypsinized, washed in phosphate-buffered saline (PBS), and centrifuged at 1000 rpm for 5 min. The cells were then resuspended in 200 µL of staining solution (containing 10 µL PI and 5 µL Annexin V–PE in binding buffer), mixed gently, and incubated for 15 min at 25 °C in the dark. The samples were later analyzed with a BD Accuri™ C6 flow cytometer.

HepG-2 cells [3] = assay: Cell cycle analysis by flow cytometry (PI); format: cell-based, human; conditions: 24 h
Description: Based on the results of the cytotoxicity assay, compound b17 was selected for further mechanistic study with HepG-2 cells. For flow cytometry analysis of DNA content, approximately 1.5 × 10^5 HepG-2 cells/well in exponential growth mode were plated in 6-well plates and allowed to adhere, then treated with different concentrations of compound b17 for 24 h. After incubation, the cells were collected, centrifuged, and fixed with ice-cold ethanol (70%). The cells were treated with RNase A and stained with PI. Samples were analyzed on a BD Accuri C6 flow cytometer (BD, New York, NY, USA). DNA histograms were analyzed using ModFit for Windows.

[4] = Homo sapiens, HepG2, HepG-2 cell line, read-out: IC50 HepG-2
[5] = Homo sapiens, HepG2, HepG-2 cells, read-out: IC50 against HepG-2 cells

SMILES	melting point	IC50 (HepG-2 cells [1]; [4])	IC50 (primary hepatocytes)	further results
N.N.[Cl][Pt][Cl] [Cisplatin, cisplatin, reference compound]	–	–	–	IC50 (HepG-2 cells [1]; HepG-2 cell line, read-out: IC50 HepG-2): 8.45 ± 1.05 µM
COc1cc(C2CC(c3ccccc3O)=NN2)cc(OC)c1O (centres unmarked) [b1, 4-[5-(2-Hydroxyphenyl)-3,4-dihydro-2H-pyrazol-3-yl]-2,6-dimethoxy-phenol]	140.3 to 140.7 °C	> 50 µM	–	–
COc1cc(C2CC(c3ccc([N+](=O)[O-])cc3)=NN2)cc(OC)c1O (centres unmarked) [b2, 2,6-Dimethoxy-4-[5-(4-nitrophenyl)-3,4-dihydro-2H-pyrazol-3-yl]-phenol]	140.7 to 141.1 °C	> 50 µM	–	–
COc1cc(C2CC(c3ccccc3O)=NN2)cc(Br)c1O (centres unmarked) [b3, 2-Bromo-4-[5-(2-hydroxyphenyl)-3,4-dihydro-2H-pyrazol-3-yl]-6-methoxy-phenol]	181.8 to 183.9 °C	> 50 µM	–	–
COc1cc(C2CC(c3ccc([N+](=O)[O-])cc3)=NN2)cc(Br)c1O (centres unmarked) [b4, 2-Bromo-6-methoxy-4-[5-(4-nitrophenyl)-3,4-dihydro-2H-pyrazol-3-yl]-phenol]	208.6 to 208.9 °C	> 50 µM	–	–
COc1cc(C2CC(c3ccccc3O)=NN2S(=O)(=O)c2ccccc2)cc(OC)c1O (centres unmarked) [b5, 4-[2-Benzenesulfonyl-5-(2-hydroxyphenyl)-3,4-dihydro-2H-pyrazol-3-yl]-2,6-dimethoxy-phenol]	163.1 to 164.4 °C	28.8 ± 1.32 µM	35.1 ± 2.21 µM	IC50 (HepG-2 cells [1]; [5]): < 50 µM; cytotoxicity against primary hepatocytes (in words) (primary hepatocytes): lower cytotoxicological activity
COc1cc(C2CC(c3ccccc3O)=NN2S(=O)(=O)c2ccccc2[N+](=O)[O-])cc(OC)c1O (centres unmarked) [b6, 4-[5-(2-Hydroxyphenyl)-2-(2-nitro-benzenesulfonyl)-3,4-dihydro-2H-pyrazol-3-yl]-2,6-dimethoxy-phenol]	151.1 to 152.8 °C	> 50 µM	–	–
COc1cc(C2CC(c3ccccc3O)=NN2S(=O)(=O)c2cccc([N+](=O)[O-])c2)cc(OC)c1O (centres unmarked) [b7, 4-[5-(2-Hydroxyphenyl)-2-(3-nitro-benzenesulfonyl)-3,4-dihydro-2H-pyrazol-3-yl]-2,6-dimethoxy-phenol]	131.9 to 133.5 °C	> 50 µM	–	–
COc1cc(C2CC(c3ccccc3O)=NN2S(=O)(=O)c2ccc([N+](=O)[O-])cc2)cc(OC)c1O (centres unmarked) [b8, 4-[5-(2-Hydroxyphenyl)-2-(4-nitro-benzenesulfonyl)-3,4-dihydro-2H-pyrazol-3-yl]-2,6-dimethoxy-phenol]	195.5 to 197 °C	> 50 µM	–	–
COc1cc(C2CC(c3ccccc3O)=NN2S(=O)(=O)c2ccc(C)cc2)cc(OC)c1O (centres unmarked) [b9, 4-[5-(2-Hydroxyphenyl)-2-(toluene-4-sulfonyl)-3,4-dihydro-2H-pyrazol-3-yl]-2,6-dimethoxy-phenol]	194.6 to 194.7 °C	12 ± 1.83 µM	29.7 ± 2.43 µM	IC50 (HepG-2 cells [1]; [5]): < 50 µM; cytotoxicity against primary hepatocytes (in words) (primary hepatocytes): lower cytotoxicological activity
COc1cc(C2CC(c3ccccc3O)=NN2C(=O)c2ccccc2[N+](=O)[O-])cc(OC)c1O (centres unmarked) [b10, [5-(4-Hydroxy-3,5-dimethoxyphenyl)-3-(2-hydroxyphenyl)-4,5-dihydro-pyrazol-1-yl]-(2-nitrophenyl)-methanone]	194.6 to 194.7 °C	> 50 µM	–	–
COc1cc(C2CC(c3ccccc3O)=NN2C(=O)c2cccc([N+](=O)[O-])c2)cc(OC)c1O (centres unmarked) [b11, [5-(4-Hydroxy-3,5-dimethoxyphenyl)-3-(2-hydroxyphenyl)-4,5-dihydro-pyrazol-1-yl]-(3-nitrophenyl)-methanone]	207.7 to 209.3 °C	> 50 µM	–	–
COc1cc(C2CC(c3ccccc3O)=NN2C(=O)c2ccc([N+](=O)[O-])cc2)cc(OC)c1O (centres unmarked) [b12, [5-(4-Hydroxy-3,5-dimethoxyphenyl)-3-(2-hydroxyphenyl)-4,5-dihydro-pyrazol-1-yl]-(4-nitrophenyl)-methanone]	250.1 to 251.2 °C	> 50 µM	–	–
COc1cc(C2CC(c3ccccc3O)=NN2C(=O)c2cc([N+](=O)[O-])cc([N+](=O)[O-])c2)cc(OC)c1O (centres unmarked) [b13, (3,5-Dinitrophenyl)-[5-(4-hydroxy-3,5-dimethoxyphenyl)-3-(2-hydroxyphenyl)-4,5-dihydro-pyrazol-1-yl]-methanone]	240.4 to 240.9 °C	> 50 µM	–	–
COc1cc(C2CC(c3ccccc3O)=NN2C(=O)c2ccc3ccccc3c2)cc(OC)c1O (centres unmarked) [b14, [5-(4-Hydroxy-3,5-dimethoxyphenyl)-3-(2-hydroxyphenyl)-4,5-dihydro-pyrazol-1-yl]-naphthalen-2-yl-methanone]	185.5 to 186.5 °C	18 ± 1.37 µM	22.7 ± 1.21 µM	–
COc1cc(C2CC(c3ccccc3O)=NN2C(=O)c2cccs2)cc(OC)c1O (centres unmarked) [b15, [5-(4-Hydroxy-3,5-dimethoxyphenyl)-3-(2-hydroxyphenyl)-4,5-dihydro-pyrazol-1-yl]-thiophen-2-yl-methanone]	196.1 to 197.2 °C	4.51 ± 1.49 µM	19.24 ± 0.08 µM	–
COc1cc(C2CC(c3ccccc3O)=NN2C(=O)c2ccco2)cc(OC)c1O (centres unmarked) [b16, Furan-2-yl-[5-(4-hydroxy-3,5-dimethoxyphenyl)-3-(2-hydroxyphenyl)-4,5-dihydro-pyrazol-1-yl]-methanone]	201.1 to 203.7 °C	4.61 ± 1.27 µM	20.7 ± 1.72 µM	–
COc1cc(C2CC(c3ccccc3O)=NN2C(=O)c2cc3ccccc3s2)cc(OC)c1O (centres unmarked) [b17, Benzo[b]thiophen-2-yl-[5-(4-hydroxy-3,5-dimethoxyphenyl)-3-(2-hydroxyphenyl)-4,5-dihydro-pyrazol-1-yl]-methanone]	169.2 to 170.1 °C	3.57 ± 1.39 µM	33.5 ± 2.33 µM	cytotoxicity against primary hepatocytes (in words) (primary hepatocytes): low cytotoxicity; percentage of cell apoptosis (HepG-2 cells [2]; HepG-2, 0.9 µM): 7.6%; percentage of cell apoptosis (HepG-2 cells [2]; HepG-2, 2.7 µM): 8.7%; percentage of cell apoptosis (HepG-2 cells [2]; HepG-2, 4.5 µM): 10.2%; cells in G1 phase (Dip G1) (HepG-2 cells [3]; HepG-2, 0.9 µM): 56.88%; cells in G2/M phase (Dip G2) (HepG-2 cells [3]; HepG-2, 0.9 µM): 16.90%; cells in S phase (Dip S) (HepG-2 cells [3]; HepG-2, 0.9 µM): 26.22%; cells in G1 phase (Dip G1) (HepG-2 cells [3]; HepG-2, 2.7 µM): 33.02%; cells in G2/M phase (Dip G2) (HepG-2 cells [3]; HepG-2, 2.7 µM): 41.50%; cells in S phase (Dip S) (HepG-2 cells [3]; HepG-2, 2.7 µM): 25.48%; cells in G1 phase (Dip G1) (HepG-2 cells [3]; HepG-2, 4.5 µM): 3.11%; cells in S phase (Dip S) (HepG-2 cells [3]; HepG-2, 4.5 µM): 13.89%
COc1cc(C2CC(c3ccccc3O)=NN2c2ccccc2)cc(OC)c1O (centres unmarked) [b18, 4-[5-(2-Hydroxyphenyl)-2-phenyl-3,4-dihydro-2H-pyrazol-3-yl]-2,6-dimethoxy-phenol]	169.7 to 170.8 °C	28.5 ± 1.34 µM	50.7 ± 3.21 µM	–
COc1cc(C2CC(c3ccc(C)cc3)=NN2c2ccccc2)cc(OC)c1OC (centres unmarked) [b19, 1-Phenyl-3-p-tolyl-5-(3,4,5-trimethoxyphenyl)-4,5-dihydro-1H-pyrazole]	137.9 to 140.3 °C	> 50 µM	–	–
